Values of other authors, collected in patent US20220409609A1, “INJECTABLE FORMULATION OF HYDROXYCHLOROQUINE” (Luckwel Pharmaceuticals Inc., priority 2021, published 2022).
Counter-ions that a name gives are not always drawn.

What was measured:
[1] = water at 25° C.

For `CCN(CCO)CCCC(C)Nc1ccnc2cc(Cl)ccc12` (racemic) [Hydroxychloroquine sulfate, 2-[[4-[(7-Chloro-4-quinolyl)amino]pentyl]ethylamino] ethanol sulfate (1:1)], the “time at which hydroxychloroquine concentrations peak after dosing” value is given as 3 to 4 h and the solubility in water [1] is given as “freely soluble”.
